# Results: ChEMBL document CHEMBL3826912 (ACS Med Chem Lett, 2016)
# Experiments:
# [1] = Dissociation constant, pKa of the compound; assay type: physicochemical
# in vivo = details: rat, po, 5 mg/kg
# Description: AUC (0 to 24 hrs) in rat at 5 mg/kg, po
# in vitro = details: human, MT2 cells
# Description: Cytotoxicity against human MT2 cells
# [2] = Half life in human liver microsomes at 0.5 uM in presence of NADPH by LC-MS/MS analysis; assay type: ADME
# [3] = Half life in rat liver microsomes at 0.5 uM in presence of NADPH by LC-MS/MS analysis; assay type: ADME
# [4] = Half life in dog liver microsomes at 0.5 uM in presence of NADPH by LC-MS/MS analysis; assay type: ADME, Canis lupus familiaris
# [5] = Half life in monkey liver microsomes at 0.5 uM in presence of NADPH by LC-MS/MS analysis; assay type: ADME, Macaca mulatta; details: rhesus monkey
# [6] = Oral bioavailability in mouse at 5 mg/kg by LC-MS/MS analysis; assay type: ADME, organism-based; details: in vivo
# [7] = Oral bioavailability in rat at 5 mg/kg by LC-MS/MS analysis; assay type: ADME, organism-based; details: in vivo
# [8] = Oral bioavailability in dog at 1.85 mg/kg by LC-MS/MS analysis; assay type: ADME, organism-based, Canis lupus familiaris; details: in vivo
# [9] = Oral bioavailability in Cynomolgus monkey at 2 mg/kg by LC-MS/MS analysis; assay type: ADME, organism-based, Macaca fascicularis; details: in vivo
# [10] = AUCtotal in mouse at 5 mg/kg administered via oral gavage by LC-MS/MS analysis; assay type: ADME, organism-based; parameters: dose 5 mg/kg, route oral, time AUCmax; details: in vivo
# [11] = AUCtotal in rat at 5 mg/kg administered via oral gavage by LC-MS/MS analysis; assay type: ADME, organism-based; parameters: dose 5 mg/kg, time AUCmax, route oral; details: in vivo
# [12] = AUCtotal in dog at 1.85 mg/kg administered via oral gavage by LC-MS/MS analysis; assay type: ADME, organism-based, Canis lupus familiaris; parameters: dose 1.85 mg/kg, time AUCmax, route oral; details: in vivo
# [13] = AUCtotal in Cynomolgus monkey at 2 mg/kg administered via oral gavage by LC-MS/MS analysis; assay type: ADME, organism-based, Macaca fascicularis; parameters: dose 2 mg/kg, route oral, time AUCmax; details: in vivo
# [14] = Drug level in mouse at 5 mg/kg administered via oral gavage after 24 hrs by LC-MS/MS analysis; assay type: ADME, organism-based; details: in vivo, read-out: Drug uptake
# [15] = Drug level in rat at 5 mg/kg administered via oral gavage after 24 hrs by LC-MS/MS analysis; assay type: ADME, organism-based; details: in vivo, read-out: Drug uptake
# [16] = Drug level in dog at 1.85 mg/kg administered via oral gavage after 24 hrs by LC-MS/MS analysis; assay type: ADME, organism-based, Canis lupus familiaris; details: in vivo, read-out: Drug uptake
# [17] = Drug level in Cynomolgus monkey at 2 mg/kg administered via oral gavage after 24 hrs by LC-MS/MS analysis; assay type: ADME, organism-based, Macaca fascicularis; details: in vivo, read-out: Drug uptake
# [18] = Half life in iv dosed mouse by LC-MS/MS analysis; assay type: ADME, organism-based; details: in vivo
# [19] = Half life in iv dosed rat by LC-MS/MS analysis; assay type: ADME, organism-based; details: in vivo
# [20] = Half life in iv dosed dog by LC-MS/MS analysis; assay type: ADME, organism-based, Canis lupus familiaris; details: in vivo
# [21] = Half life in iv dosed Cynomolgus monkey by LC-MS/MS analysis; assay type: ADME, organism-based, Macaca fascicularis; details: in vivo
# [22] = Protein binding in human serum by ultracentrifugation method; assay type: ADME; details: read-out: PB
# Salmonella typhimurium = assay: Mutagenicity in Salmonella typhimurium; assay type: toxicity, organism-based; details: salmonella enterica subsp. enterica serovar typhimurium
# [23] = Inhibition of CYP450 in human microsomes; assay type: ADME
smiles,measurement,setting,value
C=C(C)[C@@H]1CC[C@]2(CNCCCN3CCS(=O)(=O)CC3)CC[C@]3(C)[C@H](CC[C@@H]4[C@@]5(C)CC=C(c6ccc(C(=O)O)cc6)C(C)(C)[C@@H]5CC[C@]43C)[C@@H]12,pKa,[1],4.5
same,AUC(0-t) at 24 h,in vivo,1.71 µM·h
same,CC50,in vitro,3.5 nM
C=C(C)[C@@H]1CC[C@]2(CNCCN(C)C)CC[C@]3(C)[C@H](CC[C@@H]4[C@@]5(C)CC=C(c6ccc(C(=O)O)cc6)C(C)(C)[C@@H]5CC[C@]43C)[C@@H]12,AUC(0-t) at 24 h,in vivo,0.153 µM·h
same,CC50,in vitro,1.24 nM
C=C(C)[C@@H]1CC[C@]2(CNCCO)CC[C@]3(C)[C@H](CC[C@@H]4[C@@]5(C)CC=C(c6ccc(C(=O)O)cc6)C(C)(C)[C@@H]5CC[C@]43C)[C@@H]12,AUC(0-t) at 24 h,in vivo,4.98 µM·h
same,CC50,in vitro,8.48 nM
C=C(C)[C@@H]1CC[C@]2(C(=O)O)CC[C@]3(C)[C@H](CC[C@@H]4[C@@]5(C)CC=C(c6ccc(C(=O)O)cc6)C(C)(C)[C@@H]5CC[C@]43C)[C@@H]12,AUC(0-t) at 24 h,in vivo,5.72 µM·h
same,CC50,in vitro,27.2 nM
C=C(C)[C@@H]1CC[C@]2(CNC(C)C)CC[C@]3(C)[C@H](CC[C@@H]4[C@@]5(C)CC=C(c6ccc(C(=O)O)cc6)C(C)(C)[C@@H]5CC[C@]43C)[C@@H]12,CC50,in vitro,2.36 nM
C=C(C)[C@@H]1CC[C@]2(CNCCCN3CCCC3=O)CC[C@]3(C)[C@H](CC[C@@H]4[C@@]5(C)CC=C(c6ccc(C(=O)O)cc6)C(C)(C)[C@@H]5CC[C@]43C)[C@@H]12,AUC(0-t) at 24 h,in vivo,1.04 µM·h
same,CC50,in vitro,5.8 nM
C=C(C)[C@@H]1CC[C@]2(NCCN3CCS(=O)(=O)CC3)CC[C@]3(C)[C@H](CC[C@@H]4[C@@]5(C)CC=C(c6ccc(C(=O)O)cc6)C(C)(C)[C@@H]5CC[C@]43C)[C@@H]12 [BMS-955176],half-life at 0.5 µM,[2],> 2 h
same,half-life at 0.5 µM,[3],> 2 h
same,half-life at 0.5 µM,[4],> 2 h
same,half-life at 0.5 µM,[5],0.2 h
same,bioavailability,[6],27%
same,bioavailability,[7],26%
same,bioavailability,[8],8.5%
same,bioavailability,[9],3.9%
same,AUC,[10],28.9 µM·h
same,AUC,[11],14.2 µM·h
same,AUC,[12],29.4 µM·h
same,AUC,[13],0.995 µM·h
same,concentration at 24 h,[14],256 nM
same,concentration at 24 h,[15],128 nM
same,concentration at 24 h,[16],559 nM
same,concentration at 24 h,[17],17.4 nM
same,half-life,[18],8.9 h
same,half-life,[19],6.6 h
same,half-life,[20],31.7 h
same,half-life,[21],8.6 h
same,fraction unbound,[22],< 0.16
same,Activity,Salmonella typhimurium,Non-toxic
same,inhibition (INH),[23],Not Active
same,AUC(0-t) at 24 h,in vivo,4.13 µM·h
same,CC50,in vitro,9.2 nM
C=C(C)[C@@H]1CC[C@]2(C(=O)NCCN(C)C)CC[C@]3(C)[C@H](CC[C@@H]4[C@@]5(C)CC=C(c6ccc(C(=O)O)cc6)C(C)(C)[C@@H]5CC[C@]43C)[C@@H]12,AUC(0-t) at 24 h,in vivo,1.62 µM·h
same,CC50,in vitro,2.61 nM
